Assay results from EP0213490A2, “Colour-photographic recording material” (Agfa-Gevaert AG, priority 1985, dated 1987).

Tests used:
[1] = Solubility determination in ethyl acetate (parts by weight of solvent needed to dissolve one part of yellow dye); assay type: physicochemical; details: Ethylacetat, 60°C
Method: Von den erfindungsgemäßen Verbindungen II-1, 11-5 und III-1 sowie von den strukturanalogen Vergleichsverbindungen V-1, V-2, V-3, V-4, V-5 und V-6 wurden deren Löslichkeit in Ethylacetat bei 60°C bestimmt. Hierzu wurde ermittelt, wieviele Gewichtsteile Lösungsmittel zum Lösen eines Gewichtsteils Gelbfarbstoff erforderlich sind. Die miteinander zu vergleichenden Farbstoffe unterschieden sich jeweils ausschließlich in der Substitution des Phenylazorestes

[2] = Dissolving the mask coupler in tricresyl phosphate/ethyl acetate for dispersion preparation; assay type: physicochemical; details: 55°C
Method: Von der erfindungsgemäßen Verbindung 11-1 wurde die Dispersion la und von der betreffenden Vergleichsverbindung V-2 wurde die Dispersion lb jeweils nach der nachfolgend beschriebenen Vorschrift hergestellt. 100 g Maskenkuppler werden in einer Abmischung aus 100 g Trikresylphosphat und 300 g Ethylacetat bei 55^*C gelöst. […] Die Lösung wird in 1 kg einer 7,5 %igen wäßrigen Gelatine, die ebenfalls auf 55°C erhitzt ist und mit 10 g Alkanol XC versehen war, mit einem hochtourigen Mischer einemulgiert. Anschließend wurde das niedrig siedende Lösungsmittel im Vakuum entfernt und die zurückbleibende Dispersion bei 6°C erstarrt.
Gemäß der im Beispiel 2 beschriebenen allgemeinen Vorschrift wurde aus der erfindungsgemäßen Verbindung 11-5 die Dispersion 2a und aus der betreffenden Vergleichsverbindung V-4 die Dispersion 2b hergestellt. (Die Vergleichsverbindung V-4 mußte, damit sie in Lösung ging, in der hydrophoben Dispersionsphase auf 70°C erhitzt werden).

CCCCCCCCCCCCCC(=O)Nc1ccc(Cl)c(NC2=NN(c3c(Cl)cc(Cl)cc3Cl)C(=O)C2N=Nc2ccc(OC(C)C)c(OC(C)C)c2)c1 (centres unmarked) [II-1]
1 Gew.-Teil Verbindung löst sich in X Gew.-Teilen Ethyl-acetat [1]: 2,5 Gew.-Teilen Ethyl-acetat

CCCCCCCCCCCCCC(=O)Nc1ccc(Cl)c(NC2=NN(c3c(Cl)cc(Cl)cc3Cl)C(=O)C2N=Nc2ccc(OC)c(OC)c2)c1 (centres unmarked) [V-1]
1 Gew.-Teil Verbindung löst sich in X Gew.-Teilen Ethyl-acetat [1]: 15 Gew.-Teilen Ethyl-acetat

CCCCCCCCCCCCCC(=O)Nc1ccc(Cl)c(NC2=NN(c3c(Cl)cc(Cl)cc3Cl)C(=O)C2N=Nc2ccc(OCC)c(OCC)c2)c1 (centres unmarked) [V-2]
1 Gew.-Teil Verbindung löst sich in X Gew.-Teilen Ethyl-acetat [1]: 19 Gew.-Teilen Ethyl-acetat
Dissolution of 100 g Maskenkuppler in 100 g Trikresylphosphat and 300 g Ethylacetat [2]: mußte neben Ethylacetat noch soviel Tetrahydrofuran zugesetzt werden, daß sie bei 55 °C in Lösung ging

CCCCCCCCCCCCCC(=O)Nc1ccc(Cl)c(NC2=NN(c3c(Cl)cc(Cl)cc3Cl)C(=O)C2N=Nc2ccc(OCCC)c(OCCC)c2)c1 (centres unmarked) [V-3]
1 Gew.-Teil Verbindung löst sich in X Gew.-Teilen Ethyl-acetat [1]: 23 Gew.-Teilen Ethyl-acetat
